Reference: patent US20070048812A1, “Cell-based luminogenic and nonluminogenic proteasome assays” (priority 2005, published 2007)

How the values were obtained:
U266 cells = experiment: Toxicity of proteasome inhibitor incubation to cells; type: cell-based
[1] = system: proteasome activities in Jurkat cells; experiment: Cell-based luminescent proteasome assay in Jurkat cells; details: 1.5 hours inhibitor exposure
Description: FIG. 3. Luminescence versus proteasome inhibitor concentration in Jurkat cells. Jurkatt cells were exposed to inhibitor (AdaAhxL3VS) for 1.5 hours and then contacted with LLVY-aminoluciferin (final concentration of 10 μM; SEQ ID NO:1).
NCI-H226 cells (ATCC #CRL-5826) were maintained as an attached line using RPMI 1640 (Sigma #R-8005) with 10% fetal bovine serum (Hyclone # SH30070) and passaged as needed. Jurkat, HL-60 and U937 suspension cell lines were likewise maintained and passaged. To prepare cells for a cell-based proteasome assay, adherent cells were harvested from the parent flask by removing medium, rinsing the flask with D-PBS and incubated with trypsin-EDTA (Sigma T-4040) for 3 to 4 minutes at 37° C. The trypsin reaction was stopped by adding complete medium containing serum, and cells were then centrifuged 4 minutes at 200×G. The cell pellet was suspended in fresh medium, cells counted by trypan blue exclusion and adjusted to 1.11×10^5 cells/ml. […]
For instance, one vial of V859A (Luciferin Detection Reagent) is suspended with 10 ml of buffer to which 50 to 100 μl of substrate is added, and 100 μl of cells are combined with 100 μl of substrate containing reagent. […] This pre-incubation depletes the free aminoluciferin present in the substrate, thereby reducing potential background luminescence. […]

U937 cells = experiment: ATP content (viability), CellTiter-Glo; type: cell-based; details: 1.5 hours treatment, concentrations tested
Description: (§1) Cell viability measurements were made using CellTiter Glo (Promega Corp.) in a parallel series of samples to confirm that viability was not affected by lactacystin treatment.

HL-60 cells = experiment: ATP content (viability), CellTiter-Glo; type: cell-based; details: 1.5 hours treatment, concentrations tested
Description: as §1

proteasomes = proteasomes (Homo sapiens, UniProt P28074); experiment: Lactacystin activity on proteasomes, LLVY-aminoluciferin luminescence with DTT; type: biochemical; details: at 20 μM, with DTT included (FIG. 2A)
Description: (§2) After a 0.5 hour preincubation in 25 mM HEPES/0.5 mM EDTA/1 mM DTT, a 2×reagent was added (20 μM LLVY-aminoluciferin (SEQ ID NO:1)/3 mM CaCL2/10 mM MgSO4).

calpain I = target: T1, calpain I (Homo sapiens, UniProt P07384); experiment: Lactacystin activity on purified calpain, LLVY-aminoluciferin luminescence; type: biochemical; details: 0.5 hour preincubation, calcium present (FIG. 2A)
T1 sequence (P07384 1-714): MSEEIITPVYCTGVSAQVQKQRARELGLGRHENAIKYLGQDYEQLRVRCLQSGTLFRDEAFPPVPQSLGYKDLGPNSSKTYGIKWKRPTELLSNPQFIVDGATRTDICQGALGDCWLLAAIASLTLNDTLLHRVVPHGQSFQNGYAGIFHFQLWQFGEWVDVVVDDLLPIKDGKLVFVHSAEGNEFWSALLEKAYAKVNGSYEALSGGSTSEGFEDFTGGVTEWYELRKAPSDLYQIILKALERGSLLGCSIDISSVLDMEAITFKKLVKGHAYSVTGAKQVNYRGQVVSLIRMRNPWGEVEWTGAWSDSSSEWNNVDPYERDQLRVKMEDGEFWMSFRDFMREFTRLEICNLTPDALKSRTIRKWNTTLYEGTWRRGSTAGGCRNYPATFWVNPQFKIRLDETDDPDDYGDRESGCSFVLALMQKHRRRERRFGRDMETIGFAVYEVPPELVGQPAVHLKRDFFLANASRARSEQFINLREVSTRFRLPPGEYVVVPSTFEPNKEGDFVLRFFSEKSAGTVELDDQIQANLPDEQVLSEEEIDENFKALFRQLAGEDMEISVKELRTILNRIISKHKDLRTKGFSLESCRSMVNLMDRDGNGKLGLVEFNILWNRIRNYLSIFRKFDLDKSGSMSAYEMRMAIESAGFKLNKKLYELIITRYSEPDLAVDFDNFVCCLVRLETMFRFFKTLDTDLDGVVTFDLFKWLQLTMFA
T1 sequence (P04632 1-268 partner): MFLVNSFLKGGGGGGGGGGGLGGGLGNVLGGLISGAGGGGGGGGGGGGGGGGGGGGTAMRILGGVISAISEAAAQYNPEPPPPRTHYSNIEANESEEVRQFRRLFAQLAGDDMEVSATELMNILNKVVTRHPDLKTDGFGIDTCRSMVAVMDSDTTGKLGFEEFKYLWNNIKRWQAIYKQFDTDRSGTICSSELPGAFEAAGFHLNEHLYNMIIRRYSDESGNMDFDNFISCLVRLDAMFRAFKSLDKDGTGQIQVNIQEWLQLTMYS
Description: as §2

CC(C)CC(C=CS(C)(=O)=O)NC(=O)[C@H](CC(C)C)NC(=O)[C@H](CC(C)C)NC(=O)CCCCCNC(=O)CCCCCNC(=O)CCCCCNC(=O)CC12CC3CC(CC(C3)C1)C2 (stereo partly shown) [AdaAhx3L3VS, adamantane-acetyl-(6-aminohexanoyl)3-(leucinyl)3-vinyl-(methyl)-sulfone]
toxicity to the cells, short incubations (U266 cells; incubation for 1 to 2 hours): not toxic | toxicity to the cells, longer incubation times (U266 cells; longer incubation times): induced apoptosis | chymotrypsin-like, trypsin-like and caspase-like proteasome activities [1]: blocked all three activities

CC(=O)N[C@@H](CSC(=O)[C@]1([C@@H](O)C(C)C)NC(=O)[C@H](C)[C@@H]1O)C(=O)O [lactacystin]
cell viability (ATP assay, CellTiterGlo) (U937 cells): did not kill the cells | cell viability (ATP assay, CellTiterGlo) (HL-60 cells): did not kill the cells | inhibition of the proteasome (proteasomes): incomplete inhibition | effect on calpain I (calpain I): minimal effect
